Publication PMC4041848, “Differential Effects of Omeprazole and Lansoprazole Enantiomers on Aryl Hydrocarbon Receptor in Human Hepatocytes and Cell Lines” (PLoS ONE, 2014)
Read-outs that look alike come from different tables or passages of the source.

Legend:
[1] = MTT cytotoxicity test in AZ-AHR reporter cells; conditions: human
Experimental: (§1) A stably transfected gene reporter cell line AZ-AHR, derived from human hepatoma HepG2 cells transfected with a construct containing several AhR binding sites upstream of a luciferase reporter gene, was used for assessment of AhR transcriptional activity. Cells were incubated for 24 h with tested compounds and/or vehicle (DMSO; 0.1% v/v), in the presence or absence of TCDD (10 nM; AZ-AHR cells) or DEX (100 nM; AZ-GR cells). After the treatments, cells were lysed and luciferase activity was measured. In parallel, cell viability was determined by conventional MTT test.
(§2) In the first series of experiments, the cytotoxicity of tested compounds was assessed in gene reporter cell line AZ-AHR. For this purpose, the cells were incubated for 24 h with S-OME, R-OME, rac-OME, S-LAN, R-LAN and rac-LAN at concentration ranging from 100 pM to 250 µM. The vehicle was DMSO (0.1% v/v). After the treatment, a conventional MTT test was performed.
(§3) Figure 1 Effect of omeprazole and lansoprazole enantiomers on transcriptional activity of aryl hydrocarbon receptor AhR in human gene reporter cell line AZ-AHR. The cells were seeded in 96-well plates and stabilized for 16 h. Panels A and B: Cells were incubated for 24 h with S-OME, R-OME, rac-OME, S-LAN, R-LAN and rac-LAN at concentrations ranging from 10^−10 M to 10^−4 M. The vehicle was DMSO (0.1% v/v). After the treatment, MTT test was performed and absorbance was measured at 540 nm. Treatments were performed in triplicates. The data are the mean from experiments from six different passages of cells and are expressed as a percentage of viability of control cells. The values of IC50 were calculated and are indicated in a figure. Panels C - F: AZ-AHR cells were incubated for 24 h with S-OME, R-OME, rac-OME, S-LAN, R-LAN and rac-LAN at concentrations ranging from 10^−10 M to 10^−4 M in the absence (Panels C and D - agonist mode) or in the presence (Panels E and F- antagonist mode) of TCDD (5 nM). The vehicle was DMSO (0.1% v/v). After the treatments, cells were lysed and luciferase activity was measured. Treatments were performed in triplicates in five (agonist mode) or four (antagonist mode) independent cell passages. […] Data are expressed as a fold induction of luciferase activity over control cells (Panels C and D - agonist mode) or as a percentage of maximal induction attained by TCDD (Panels E and F- antagonist mode).

[2] = system: aryl hydrocarbon receptor AhR; experiment: AhR gene reporter assay, agonist mode; conditions: for AhR agonist efficacy: AZ-AHR cells, 24 h, compared to 5 nM TCDD, calculated at 100 µM compound (stated for omeprazole); for EC50 at 24 h: human
Experimental: as §1, §3
Gene reporter assays were performed in two different experimental layouts. […] In antagonist mode, cells were incubated with increasing concentrations of tested compounds in combination with model agonist (TCDD; 5 nM), and half-maximal inhibitory concentrations (IC50) were calculated. […] The efficacy was calculated at concentration of compounds of 100 µM and compared to 5 nM TCDD (Figure 1C).

[3] = system: CYP1A1 mRNA; experiment: CYP1A1 mRNA induction in primary human hepatocytes (qRT-PCR)
Excerpt: (§4) Primary human hepatocytes used in this study were obtained from two sources: (i) from multiorgan donor HH52; the use of liver cells of donor HH52 was approved by “Ethical committee at the Faculty Hospital Olomouc”,and it was in accordance with Transplantation law #285/2002 Sb; “Ethical committee at the Faculty Hospital Olomouc” waived the authors from obtaining consent from the next of kin, regarding human hepatocytes obtained from liver donor HH52. (ii) long-term human hepatocytes in monolayer Batch HEP220770 (person), Batch HEP220774 (person) were purchased from Biopredic International (Biopredic International, Rennes, France). Cells were cultured in serum-free medium. Cultures were maintained at 37°C and 5% CO2 in a humidified incubator.
(§5) Total RNA was isolated using TRI Reagent (Molecular Research Center, Cincinnati, OH, USA). cDNA was synthesized from 1000 ng of total RNA using M-MLV Reverse Transcriptase (Finnzymes, Espoo, Finland) at 42°C for 60 min in the presence of random hexamers (Takara, Shiga, Japan). qRT-PCR was carried out using LightCycler FastStart DNA MasterPLUS SYBR Green I (Roche Diagnostic Corporation, Prague, Czech Republic) on a Light Cycler 480 II apparatus (Roche Diagnostic Corporation). CYP1A1, CYP1A2 and GAPDH mRNAs were determined as described previously. Measurements were performed in triplicates. Gene expression was normalized to GAPDH as a housekeeping gene.
We examined a capability of omeprazole and lansoprazole to induce CYP1A1 and CYP1A2 mRNA and protein in primary human hepatocytes, which is a more physiological and metabolically competent cell model. Human hepatocytes were treated for 24 h or 48 h with TCDD (5 nM), vehicle (DMSO; 0.1% V/V) and tested compounds.
Figure 3 Effects of omeprazole and lansoprazole enantiomers on CYP1A1 mRNA, protein and EROD activity in primary human hepatocytes. Panel A and Panel B: RT-PCR analyses of CYP1A1 and CYP1A2 mRNA and western blots of CYP1A1 and CYP1A2 from two different cultures (HH52 and Hep220770) are shown. Human hepatocytes were incubated for 24 h (mRNA analysis) or 48 (protein analysis) with S-OME, R-OME, rac-OME, S-LAN, R-LAN, rac-LAN, TCDD and vehicle (DMSO; 0.1% v/v). RT-PCR data are the mean ± SD from triplicate measurements and are expressed as fold induction over vehicle-treated cells. Data were normalized to GAPDH mRNA levels. Density of bands in western blots was quantified by densitometry and the values are indicated along with respective blots. Panel C: EROD and cytotoxicity: Human hepatocytes (culture Hep220774) were treated for 24 h with S-OME, R-OME, rac-OME, S-LAN, R-LAN, rac-LAN, TCDD and vehicle (DMSO; 0.1% v/v). Upper bar graph: An activity of 7-ethoxyresorufin- O-deethylase (EROD) was measured by fluorescent spectrophotometry with 530 nm excitation and 590 nm emission filters. Treatments were performed in triplicates. The data are expressed as fold induction over the value from control cells. Lower bar graph: A conventional MTT test was performed and absorbance was measured at 540 nm. Treatments were performed in triplicates. The data are expressed as percentage of viability of control cells.

[4] = system: AZ-AHR cells; experiment: MTT cytotoxicity test in AZ-AHR reporter cells; conditions: AZ-AHR cells, 24 h, MTT, concentrations up to 250 µM
Experimental: as §1, §2, §3

[5] = system: CYP1A1 mRNA; conditions: HepG2, 24 h
Experimental: as §5
Treatments were performed in triplicates.

[6] = system: CYP1A1 protein; experiment: CYP1A1 protein induction in primary human hepatocytes (western blot); conditions: hepatocyte culture Hep220770, 48 h, 100 µM
Excerpt: Primary human hepatocytes used in this study were obtained from two sources: (i) from multiorgan donor HH52; the use of liver cells of donor HH52 was approved by “Ethical committee at the Faculty Hospital Olomouc”,and it was in accordance with Transplantation law #285/2002 Sb; “Ethical committee at the Faculty Hospital Olomouc” waived the authors from obtaining consent from the next of kin, regarding human hepatocytes obtained from liver donor HH52. (ii) long-term human hepatocytes in monolayer Batch HEP220770 (person), Batch HEP220774 (person) were purchased from Biopredic International (Biopredic International, Rennes, France). Cells were cultured in serum-free medium. […]
Total protein extracts were prepared from cells cultured on 6-well plates. […] Supernatant was collected and the protein content was determined by the Bradford reagent. […] The density of bands was measured by densitometry. […]
Figure 3 Effects of omeprazole and lansoprazole enantiomers on CYP1A1 mRNA, protein and EROD activity in primary human hepatocytes. […] RT-PCR data are the mean ± SD from triplicate measurements and are expressed as fold induction over vehicle-treated cells. […] Density of bands in western blots was quantified by densitometry and the values are indicated along with respective blots. […] The data are expressed as fold induction over the value from control cells. […]

[7] = system: CYP1A2 protein; experiment: CYP1A2 protein induction in primary human hepatocytes (western blot); conditions: hepatocyte culture HH52, 48 h, 10 µM
Excerpt: as §4
Total protein extracts were prepared from cells cultured on 6-well plates. Cells were washed twice with ice-cold PBS and scraped into 1 ml of PBS. The suspension was centrifuged (4500 RPM/5 min/4°C) and the pellet was resuspended in 150 µl of ice-cold lysis buffer (150 mM NaCl; 10 mM Tris pH 7.2; 0.1% (w/v) SDS; anti-protease cocktail, 1% (v/v) Triton X-100; anti-phosphatase cocktail, 1% (v/v) sodium deoxycholate; 5 mM EDTA). […] Supernatant was collected and the protein content was determined by the Bradford reagent. […] The density of bands was measured by densitometry. […]
Figure 3 Effects of omeprazole and lansoprazole enantiomers on CYP1A1 mRNA, protein and EROD activity in primary human hepatocytes. […] RT-PCR data are the mean ± SD from triplicate measurements and are expressed as fold induction over vehicle-treated cells. […] Density of bands in western blots was quantified by densitometry and the values are indicated along with respective blots. […] Upper bar graph: An activity of 7-ethoxyresorufin- O-deethylase (EROD) was measured by fluorescent spectrophotometry with 530 nm excitation and 590 nm emission filters. […] The data are expressed as fold induction over the value from control cells. Lower bar graph: A conventional MTT test was performed and absorbance was measured at 540 nm. […] The data are expressed as percentage of viability of control cells.

[8] = system: CYP1A2 mRNA; experiment: CYP1A2 mRNA induction in primary human hepatocytes (qRT-PCR); conditions: hepatocyte culture Hep220770, 24 h
Excerpt: as §4
Total RNA was isolated using TRI Reagent (Molecular Research Center, Cincinnati, OH, USA). cDNA was synthesized from 1000 ng of total RNA using M-MLV Reverse Transcriptase (Finnzymes, Espoo, Finland) at 42°C for 60 min in the presence of random hexamers (Takara, Shiga, Japan). qRT-PCR was carried out using LightCycler FastStart DNA MasterPLUS SYBR Green I (Roche Diagnostic Corporation, Prague, Czech Republic) on a Light Cycler 480 II apparatus (Roche Diagnostic Corporation). CYP1A1, CYP1A2 and GAPDH mRNAs were determined as described previously. Measurements were performed in triplicates. […]

[9] = set-up: method as in PMID 8710755, PMID 19298580; conditions: after oral administration of racemic drug; ref [8], [9]; cited from earlier work
[10] = hepatocyte culture Hep220770, 24 h, 100 µM

SMILES	IC50 at 24 h [1] [µM]	AhR agonist efficacy [2] [%]	EC50 at 24 h [2] [µM]	CYP1A1 mRNA induction [3, 10] [fold]	cytotoxicity [4]	CYP1A1 mRNA induction ([5]; 250 µM)	CYP1A1 protein induction [6]	CYP1A1 mRNA induction ([3]; hepatocyte culture Hep220770, 24 h, 250 µM) [fold]	CYP1A2 protein induction [7]	CYP1A1 mRNA induction relative to S-LAN ([5]; 100 µM)	CYP1A1 mRNA induction relative to rac-LAN ([5]; 100 µM)	effect on CYP1A2 mRNA relative to S-LAN [8]	share of circulating drug [9]	systemic exposure relative to the S-enantiomer [9] [fold]	CYP1A1 mRNA induction ([3]; hepatocyte culture HH52, 24 h, 100 µM)
Cc1c(OCC(F)(F)F)ccnc1C[S+]([O-])c1nc2ccccc2[nH]1 (racemic) [rac-LAN, rac-lansoprazole]	> 250	22.8±5.6	2.4 ± 0.1	358											
COc1ccc2[nH]c([S+]([O-])Cc3ncc(C)c(OC)c3C)nc2c1 (racemic) [rac-OME, rac-omeprazole]	> 250	51.4±30.4	30.1 ± 2.2	740	not cytotoxic	approximately 180 fold	strong induction	706							
Cc1c(OCC(F)(F)F)ccnc1C[S@@+]([O-])c1nc2ccccc2[nH]1 [R-LAN, R-lansoprazole]	> 250	23.0±10.0	5.7 ± 2.9	575					strong induction	four times stronger	two times stronger	two times stronger	more than 80%	5	17 % of TCDD induction
